# Test results taken from US20250268826A1, “IONIZABLE LIPIDOID COMPOSITIONS AND THERAPEUTIC USES THEREOF” (Flagship Pioneering Innovations VII, LLC, priority 2023, published 2025).
# Assays:
# Format in all cases: physicochemical
# [1] = Encapsulation efficiency (EE %) by fluorescence based Ribogreen assay
# [2] = LNP size and polydispersity index (PDI) by dynamic light scattering (DLS)
# [3] = LNP Zeta potential measured using a Zetasizer (Malvern); details: for Zeta potential: hEPO mRNA; for Zeta potential (mV): LNP with hEPO mRNA, N:P ratio 6
# [4] = Table 8, LNP 50:10:38.5:1.5 mol %, hEPO mRNA, N:P 6
# [5] = Table 8, LNP Lipid:DSPC:Cholesterol:DMG-PEG2k 50:10:38.5:1.5 mol %, hEPO mRNA, N:P 6
# [6] = Table 8, LNP 50:10:38.5:1.5 mol %, N:P 6
# [7] = Table 11, LNP with hEPO mRNA, Lipid:DSPC:Cholesterol:DMG-PEG2k 50:10:38.5:1.5 mol % (ALC-0315: 46.3:9.4:42.7:1.6), N:P ratio 6, HEPES/sodium chloride/sucrose buffer, stored at −80C
# [8] = Table 11, Lipid:DSPC:Cholesterol:DMG-PEG2k 50:10:38.5:1.5 mol % (ALC-0315: 46.3:9.4:42.7:1.6), HEPES/sodium chloride/sucrose buffer, stored at −80C
# [9] = Table 1, LNP lipid:DSPC:Cholesterol:DMG-PEG2k 50:10:38.5:1.5 mol %, hEPO mRNA, N:P 6
# [10] = Table 1, LNP lipid:DSPC:Cholesterol:DMG-PEG2k 50:10:38.5:1.5 mol %, N:P 6
# [11] = Table 9, LNP 50:10:38.5:1.5 mol %, hEPO mRNA, N:P 6
# [12] = Table 9, LNP Lipid:DSPC:Cholesterol:DMG-PEG2k 50:10:38.5:1.5 mol %, hEPO mRNA, N:P 6
# [13] = Table 9, LNP 50:10:38.5:1.5 mol %, N:P 6
# [14] = Table 3, LNP 50:10:38.5:1.5 mol %, hEPO mRNA, N:P 6
# [15] = Table 4, LNP 40:10:48.5:1.5 mol %, hEPO mRNA, N:P 6
# [16] = Table 4, LNP 40:10:48.5:1.5 mol %, hEPO mRNA, N:P 9
# [17] = Table 4, LNP 40:10:48.5:1.5 mol %, hEPO mRNA, N:P 12
# [18] = Table 4, LNP 50:10:38.5:1.5 mol %, hEPO mRNA, N:P 6
# [19] = Table 4, LNP 50:10:38.5:1.5 mol %, hEPO mRNA, N:P 9
# [20] = Table 4, LNP 50:10:38.5:1.5 mol %, hEPO mRNA, N:P 12
# [21] = Table 4, LNP 60:0:38.5:1.5 mol %, hEPO mRNA, N:P 6
# [22] = Table 4, LNP 60:0:38.5:1.5 mol %, hEPO mRNA, N:P 9
# [23] = Table 4, LNP 60:0:38.5:1.5 mol %, hEPO mRNA, N:P 12
# [24] = Table 10, LNP with hEPO mRNA, Lipid:DSPC:Cholesterol:DMG-PEG2k 50:10:38.5:1.5 mol %, N:P ratio 6, DLS
# [25] = Table 6, LNP 50:10:38.5:1.5 mol %, hEPO mRNA, N:P 6
# [26] = Table 6, LNP 60:0:38.5:1.5 mol %, hEPO mRNA, N:P 6
smiles,measurement,setting,value
CCCCCCCCC(CCCCCC)C(=O)OCCN(CCOC(=O)C(CCCCCC)CCCCCCCC)C(=O)C(C)CNC.Cl (stereo not shown) [Compound 924],Encapsulation Efficiency %,[1]; [4],99.9%
same,PDI,[2]; [4],0.142
same,Size,[2]; [5],87.2 nm
same,Zeta potential,[3]; [6],−8.7 mV
CCCCCCCCC(CCCCCC)C(=O)OCCN(CCOC(=O)C(CCCCCC)CCCCCCCC)C(=O)C(C)CCN(CC)CCC.Cl (stereo not shown) [Compound 987j],Encapsulation Efficiency %,[1]; [7],95.7%
same,PDI,[2]; [7],0.101
same,Size (nm),[2]; [7],76.6 nm
same,Zeta potential (mV),[3]; [8],−4.4 mV
CCCCCCCCC(CCCCCC)C(=O)OCCN(CCOC(=O)C(CCCCCC)CCCCCCCC)C(=O)C(N)CCCCN (stereo not shown) [Compound 123],Encapsulation Efficiency %,[1]; [9],97%
same,PDI,[2]; [9],0.338
same,Size,[2]; [9],83.3 nm
same,Zeta potential,[3]; [10],−3.45 mV
"CCCCCCCCC(CCCCCC)C(=O)OCCN(CCOC(=O)C(CCCCCC)CCCCCCCC)C(=O)CN(CC)CCC.Cl (single isomer, unassigned) [Compound 960b]",Encapsulation Efficiency %,[1]; [11],99.8%
same,PDI,[2]; [11],0.099
same,Size,[2]; [12],61.4 nm
same,Zeta potential,[3]; [13],−23.35 mV
CCCCCCCC(CCCCCCC)C(=O)OCCN(CCOC(=O)C(CCCCCCC)CCCCCCC)C(=O)CN(C)C.Cl [Compound 962],Encapsulation Efficiency %,[1]; [11],99.6%
same,PDI,[2]; [11],0.132
same,Size,[2]; [12],74.9 nm
same,Zeta potential,[3]; [13],−30.33 mV
CCCCCCCCCC(=O)OCCN(CCOC(=O)CCCCCCCCC)C(=O)C(N)CO (stereo not shown) [Compound 135],Encapsulation Efficiency %,[1]; [9],89.8%
same,PDI,[2]; [9],0.228
same,Size,[2]; [9],111.3 nm
same,Zeta potential,[3]; [10],2.909 mV
CCCCCCCCCC(CCCCCCCCC)C(=O)OCCN(CCOC(=O)C(CCCCCCCCC)CCCCCCCCC)C(=O)C(C)CCN(C)C.Cl (stereo not shown) [Compound 987c],Encapsulation Efficiency %,[1]; [7],98.0%
same,PDI,[2]; [7],0.066
same,Size (nm),[2]; [7],72.0 nm
same,Zeta potential (mV),[3]; [8],−6.6 mV
CCCCCCC(CCCC)C(=O)OCCN(CCOC(=O)C(CCCC)CCCCCC)C(=O)C(C)N (stereo not shown) [Compound 609],Encapsulation Efficiency %,"[1]; Table 5, LNP 50:10:38.5:1.5 mol %, hEPO mRNA, N:P 6",99.8%
same,Size,"[2]; Table 5, LNP Lipid:DSPC:Cholesterol:DMG-PEG2k 50:10:38.5:1.5 mol %, hEPO mRNA, N:P 6",98 nm
same,Zeta potential,"[3]; Table 5, LNP 50:10:38.5:1.5 mol %, N:P 6",−4.452 mV
CCCCCCCCC(CCCCCC)C(=O)OCCN(CCOC(=O)C(CCCCCC)CCCCCCCC)C(=O)C(N)Cc1ccccc1 (stereo not shown) [Compound 117],Encapsulation Efficiency %,[1]; [9],96.7%
same,Encapsulation Efficiency %,[1]; [14],95.1%
same,Encapsulation Efficiency %,[1]; [15],87.7%
same,Encapsulation Efficiency %,[1]; [16],98%
same,Encapsulation Efficiency %,[1]; [17],98.3%
same,Encapsulation Efficiency %,[1]; [18],96.3%
same,Encapsulation Efficiency %,[1]; [19],98.6%
same,Encapsulation Efficiency %,[1]; [20],98.2%
same,Encapsulation Efficiency %,[1]; [21],90.2%
same,Encapsulation Efficiency %,[1]; [22],92.3%
same,Encapsulation Efficiency %,[1]; [23],94.8%
same,PDI,[2]; [9],0.07
same,Size,[2]; [9],61.6 nm
same,PDI,[2]; [14],0.071
same,Size,"[2]; Table 3, LNP lipid:DSPC:Cholesterol:DMG-PEG2k 50:10:38.5:1.5 mol %, hEPO mRNA, N:P 6",70.6 nm
same,PDI,[2]; [15],0.204
same,Size,[2]; [15],56.4 nm
same,PDI,[2]; [16],0.354
same,Size,[2]; [16],67.8 nm
same,PDI,[2]; [17],0.119
same,Size,[2]; [17],75.7 nm
same,PDI,[2]; [18],0.134
same,PDI,[2]; [19],0.365
same,Size,[2]; [19],65.3 nm
same,PDI,[2]; [20],0.515
same,Size,[2]; [20],67.8 nm
same,PDI,[2]; [21],0.089
same,Size,[2]; [21],125 nm
same,PDI,[2]; [22],0.018
same,Size,[2]; [22],123 nm
same,PDI,[2]; [23],0.263
same,Size,[2]; [23],55 nm
same,Size,"[2]; Table 4, LNP Lipid:DSPC:Cholesterol:DMG-PEG2k 50:10:38.5:1.5 mol %, hEPO mRNA, N:P 6",62.2 nm
same,Zeta potential,[3]; [10],−5.265 mV
same,Zeta potential,"[3]; Table 4, LNP 40:10:48.5:1.5 mol %, N:P 6",−0.6716 mV
same,Zeta potential,"[3]; Table 4, LNP 40:10:48.5:1.5 mol %, N:P 9",−1.95 mV
same,Zeta potential,"[3]; Table 4, LNP 40:10:48.5:1.5 mol %, N:P 12",−3.302 mV
same,Zeta potential,"[3]; Table 4, LNP 50:10:38.5:1.5 mol %, N:P 6",−4.369 mV
same,Zeta potential,"[3]; Table 4, LNP 50:10:38.5:1.5 mol %, N:P 9",−2.051 mV
same,Zeta potential,"[3]; Table 4, LNP 50:10:38.5:1.5 mol %, N:P 12",−4.408 mV
same,Zeta potential,"[3]; Table 4, LNP 60:0:38.5:1.5 mol %, N:P 6",−5.393 mV
same,Zeta potential,"[3]; Table 4, LNP 60:0:38.5:1.5 mol %, N:P 9",−5.043 mV
same,Zeta potential,"[3]; Table 4, LNP 60:0:38.5:1.5 mol %, N:P 12",−5.125 mV
CC/C=C\CCCCC(=O)OCCN(CCOC(=O)C(CCCCCC)CCCCCCCC)C(=O)CCN(CC)CC (stereo not shown) [Compound 917c],Encapsulation Efficiency %,"[1]; Table 10, LNP with hEPO mRNA, Lipid:DSPC:Cholesterol:DMG-PEG2k 50:10:38.5:1.5 mol %, N:P ratio 6, Ribogreen assay",84%
same,PDI,[2]; [24],0.122
same,Size (nm),[2]; [24],106.9 nm
same,Zeta potential (mV),"[3]; Table 10, Lipid:DSPC:Cholesterol:DMG-PEG2k 50:10:38.5:1.5 mol %",−4.5 mV
CCCCCCCCC(CCCCCC)C(=O)OCCN(CCOC(=O)C(CCCCCC)CCCCCCCC)C(=O)CCCN1CCCCC1.Cl (stereo not shown) [Compound 983],Encapsulation Efficiency %,[1]; [4],97.1%
same,PDI,[2]; [4],0.114
same,Size,[2]; [5],90.4 nm
same,Zeta potential,[3]; [6],−15.9 mV
CCCCCCCCC(CCCCCC)C(=O)OCCN(CCOC(=O)C(CCCCCC)CCCCCCCC)C(=O)C(C)CNCCC.Cl (stereo not shown) [Compound 928],Encapsulation Efficiency %,[1]; [4],91.8%
same,PDI,[2]; [4],0.177
same,Size,[2]; [5],75.5 nm
same,Zeta potential,[3]; [6],−11.9 mV
CCCCCCCCC(CCCCCC)C(=O)OCCN(CCOC(=O)C(CCCCCC)CCCCCCCC)C(=O)CCC(C)N (stereo not shown) [Compound 805],Encapsulation Efficiency %,[1]; [25],98.3%
same,Encapsulation Efficiency %,[1]; [26],99.9%
same,PDI,[2]; [25],0.214
same,PDI,[2]; [26],0.137
same,Size,[2]; [26],84.7 nm
same,Size,"[2]; Table 6, LNP lipid:DSPC:Cholesterol:DMG-PEG2k 50:10:38.5:1.5 mol %, hEPO mRNA, N:P 6",110.2 nm
same,Zeta potential,"[3]; Table 6, LNP 50:10:38.5:1.5 mol %, N:P 6",−0.2 mV
same,Zeta potential,"[3]; Table 6, LNP 60:0:38.5:1.5 mol %, N:P 6",3 mV
